Where “and” joins values, the source holds several entries; their conditions need not be identical. Equal values may be shown once.
Experiments:
[1] = biological target: T1, SAE (SUMO-activating enzyme) (Homo sapiens, UniProt Q9UBT2); test: SAE E1-E2 transthiolation HTRF assay; type: biochemical
T1 sequence (Q9UBT2 1-640): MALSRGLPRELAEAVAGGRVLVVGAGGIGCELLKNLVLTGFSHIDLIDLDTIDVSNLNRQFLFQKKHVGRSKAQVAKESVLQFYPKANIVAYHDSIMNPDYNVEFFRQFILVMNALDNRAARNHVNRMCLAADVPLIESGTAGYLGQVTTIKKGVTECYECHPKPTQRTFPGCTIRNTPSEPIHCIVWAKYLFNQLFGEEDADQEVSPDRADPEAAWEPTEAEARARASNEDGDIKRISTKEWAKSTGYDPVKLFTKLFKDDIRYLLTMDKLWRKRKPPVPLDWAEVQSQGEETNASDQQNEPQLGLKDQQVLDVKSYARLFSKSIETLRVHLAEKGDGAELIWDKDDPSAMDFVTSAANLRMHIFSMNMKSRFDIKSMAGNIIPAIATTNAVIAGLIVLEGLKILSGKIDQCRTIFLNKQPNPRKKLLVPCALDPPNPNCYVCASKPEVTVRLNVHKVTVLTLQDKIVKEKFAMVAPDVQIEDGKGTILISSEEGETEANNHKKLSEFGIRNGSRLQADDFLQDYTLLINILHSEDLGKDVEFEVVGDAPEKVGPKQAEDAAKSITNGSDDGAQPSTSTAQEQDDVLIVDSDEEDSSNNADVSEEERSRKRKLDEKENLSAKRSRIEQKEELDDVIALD
T1 sequence (Q9UBE0 1-346 partner): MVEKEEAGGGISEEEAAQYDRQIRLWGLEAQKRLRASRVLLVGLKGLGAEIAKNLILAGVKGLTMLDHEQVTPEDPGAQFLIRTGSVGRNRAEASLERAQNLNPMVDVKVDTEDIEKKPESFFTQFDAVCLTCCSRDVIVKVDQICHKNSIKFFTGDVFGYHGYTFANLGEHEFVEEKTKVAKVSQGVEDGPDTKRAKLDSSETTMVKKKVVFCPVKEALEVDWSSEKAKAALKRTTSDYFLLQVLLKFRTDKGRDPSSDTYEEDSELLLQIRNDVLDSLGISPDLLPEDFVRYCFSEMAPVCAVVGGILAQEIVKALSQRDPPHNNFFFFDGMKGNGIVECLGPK
Source text: An Homogeneous Time-Resolved Fluorescence (HTRF) enzyme assay was employed to evaluate compound activity against ATG7 as previously described. In this assay, a Flag-tagged ATG8 homolog (GABA type A receptor-associated protein; GABARAP) is activated by ATG7 and then transthiolated to a GST-tagged E2 (ATG3). The product of the enzyme reaction, Flag-GABARAP-ATG3-GST, is quantified by measuring FRET between Europium-Cryptate labelled monoclonal anti-Flag M2 (FLAG M2-Eu cryptate; Revvity, Cat# 61FG2KLB) and […] (Anti-GST IgG conjugated to SureLight-Allophycocyanin) (Revvity, Cat# AD0059G)). The activation and transthiolation of ubiquitin by UAE, activation and transthiolation of NEDD8 by NAE and activation and transthiolation of SUMO by SAE were all assayed in a similar fashion with appropriately tagged ubiquitin-like proteins and E2 conjugating enzymes as described.

[2] = biological target: T2, PfTyrRS (Plasmodium falciparum, UniProt Q8IAR7); test: Differential scanning fluorimetry (DSF) of PfTyrRS; type: binding; settings: for ΔTm at 50 µM: 50 μM sulfamate, tyrosine, PftRNA^Tyr, 37°C 2 h, read-out: PfTyrRS binding (DSF) Delta Tm; for ΔTm at 50 µM / PfTyrRS Tm: ATP; for Kd: estimated from DSF with an irreversible thermal unfolding model, read-out: PfTyrRS binding (DSF) apparent KD; for PfTyrRS Tm: with sulfamate, tyrosine and tRNA, apo 49.9 ± 0.6
T2 sequence (Q8IAR7 entry or part of it): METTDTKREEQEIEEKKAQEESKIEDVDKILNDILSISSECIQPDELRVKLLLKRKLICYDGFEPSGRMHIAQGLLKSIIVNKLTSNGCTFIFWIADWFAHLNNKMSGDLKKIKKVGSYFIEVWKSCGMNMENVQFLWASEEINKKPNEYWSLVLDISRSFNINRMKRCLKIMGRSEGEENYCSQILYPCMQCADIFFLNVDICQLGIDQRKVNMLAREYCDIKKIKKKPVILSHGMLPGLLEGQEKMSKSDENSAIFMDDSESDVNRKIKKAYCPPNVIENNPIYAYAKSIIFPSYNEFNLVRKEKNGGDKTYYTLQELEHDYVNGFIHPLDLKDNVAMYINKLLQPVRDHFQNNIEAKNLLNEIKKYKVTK
Method: The effect on ML471 and analogues on the thermal stability of TyrRS enzymes was assayed as previously described. […] SYPRO Orange (Sigma-Aldrich; 5,000X concentrate in DMSO) was added to the reaction mixture at a final concentration of 5X. 25 μL of the sample was added into each well of a 96-well qPCR plate (Applied Biosystems). The plate was sealed and analysed using StepOnePlus Real-Time PCR system (Applied Biosystems). The samples were heated from 20°C to 90°C with a 1% continuous gradient. The thermal unfolding curve was plotted as the first derivative curve of the raw fluorescence values. The melting temperature (Tm), defined as the peak of the first derivative curve, was used to assess the thermal stability of protein-ligand complexes.

[3] = biological target: T2, PfTyrRS; test: ATP consumption by PfTyrRS (Kinase Glo); type: biochemical; settings: PfTyrRS 25 nM, ATP 10 μM, tyrosine 200 μM, cognate tRNA^Tyr 4.8 μM, 37°C 1 h; read-out: Inhibition of PfTyrRS (Kinase Glo) IC50
Method: Consumption of ATP was measured using a luciferase-based assay as per the manufacturer’s instructions (Kinase-Glo Luminescent Kinase Assay, Promega).

Nc1ncnc2c1c(C(F)(F)F)nn2[C@@H]1O[C@H](COS(N)(=O)=O)[C@@H](O)[C@H]1O [ML107]
IC50 [1]: 78.5 ± 6.2 µM | ΔTm at 50 µM [2]: 13.6 ± 0.6 °C | Kd [2]: 0.0014 µM | PfTyrRS Tm [2]: 63.5 ± 0.4 °C | IC50 [3]: 24 ± 5 µM

Nc1ncnc2c1c(Oc1ccccc1)nn2[C@@H]1O[C@H](COS(N)(=O)=O)[C@@H](O)[C@H]1O [ML470]
IC50 [1]: > 100 µM | ΔTm at 50 µM [2]: 15.7 ± 0.3 °C | Kd [2]: 0.0006 µM | PfTyrRS Tm [2]: 65.5 ± 0.6 °C | IC50 [3]: 41 ± 23 µM

CC(C)c1nn([C@@H]2O[C@H](COS(N)(=O)=O)[C@@H](O)[C@H]2O)c2ncnc(N)c12 [ML471, ((2R,3S,4R,5R)-5-(4-amino-3-isopropyl-1H-pyrazolo[3,4-d]pyrimidin-1-yl)-3,4-dihydroxytetrahydrofuran-2-yl)methyl sulfamate]
IC50 [1]: > 100 µM | activity against SAE (in words) [1]: no or very little activity | ΔTm at 50 µM [2]: 18 ± 0.1 °C | Kd [2]: 0.0002 µM | PfTyrRS Tm [2]: 67.9 ± 0.4 °C | IC50 [3]: 1.4 ± 0.2 µM

CCOc1nn([C@@H]2O[C@H](COS(N)(=O)=O)[C@@H](O)[C@H]2O)c2ncnc(N)c12 [ML676]
IC50 [1]: 31.4 ± 5.7 µM | ΔTm at 50 µM [2]: 15.69 ± 0.01 °C | Kd [2]: 0.0006 µM | PfTyrRS Tm [2]: 65.5 ± 0.6 °C

CCc1nn([C@@H]2O[C@H](COS(N)(=O)=O)[C@@H](O)[C@H]2O)c2ncnc(N)c12 [ML681]
IC50 [1]: 22.4 ± 3.1 µM | ΔTm at 50 µM [2]: 16.4 ± 0.1 °C | Kd [2]: 0.0004 µM | PfTyrRS Tm [2]: 66.3 ± 0.5 °C | IC50 [3]: 23 ± 8 µM

CC(C)Oc1nn([C@@H]2O[C@H](COS(N)(=O)=O)[C@@H](O)[C@H]2O)c2ncnc(N)c12 [ML723]
IC50 [1]: > 100 µM | ΔTm at 50 µM [2]: 16.2 ± 0.1 °C | Kd [2]: 0.0005 µM | PfTyrRS Tm [2]: 66.1 ± 0.7 °C | IC50 [3]: 14 ± 5 µM

Nc1ncnc2c1c(OC(F)F)nn2[C@@H]1O[C@H](COS(N)(=O)=O)[C@@H](O)[C@H]1O [ML901]
IC50 [1]: > 100 µM | activity against SAE (in words) [1]: no activity | ΔTm at 50 µM [2]: 15.2 ± 0.1 °C | Kd [2]: 0.0007 µM | PfTyrRS Tm [2]: 65.1 ± 0.5 °C | IC50 [3]: 13.4 µM and 13 µM

Source: PMC11671014 (PLOS Pathogens, 2024)
